Assay results: patent US20260335293A1, “USE OF NOVEL COMPOUND FOR TREATING INTRACTABLE DISEASES” (YJ CERAPEUTICS INC., priority 2023, published 2026)

Legend:
[1] = test system: neuropathic pain (mechanical allodynia) in SCI, LSS and SNI animal models; experiment: Mechanical allodynia (von Frey, 50% threshold) in SCI, LSS and SNI neuropathic pain models; type: in vivo, Sprague-Dawley rats; conditions: i.p. 5 mg/kg; at 1 hour after administration
Protocol: To be used as a central nerve injury animal model, a traumatic spinal cord injury (SCI) model was prepared (FIG. 1A). Specifically, 230 to 250 g of male adult Sprague-Dawley rats were anesthetized by intraperitoneal injection of chloral hydrate (500 mg/kg), and then the back and neck regions were shaved, and the spinal cord under the back and neck regions was exposed without damaging the dura mater, and a laminectomy was performed at T9 to T10 levels. To stabilize the spine, the spinous processes of T8 and T11 were fixed, and the spine was damaged by free-falling a 10 g weight from a height of 25 mm using an NYU impactor onto the back surface of the exposed spinal cord and then the rats were left in a temperature and humidity-controlled chamber overnight while covering the muscles and skin. After surgery, the rats were subcutaneously injected with a supplement solution (5 ml, lactated ringer) and injected with antibiotics (gentamicin, 5 mg/kg, intramuscular injection) once daily for 5 days. The body weight, remaining food, and the weight of water were confirmed and recorded for all animals, and the bladder was emptied twice daily by passive bladder massage until reflex micturition was established. At this time, a Sham group was a group that was subjected to only laminectomy without damage.
To be used as a peripheral nerve injury animal model, a lumbar spinal stenosis (LSS) model was prepared (FIG. 1B). Specifically, 260 to 280 g of adult male Sprague-Dawley rats were anesthetized with intraperitoneal injection of chloral hydrate (500 mg/kg), the back region was shaved, and then the spinal plate was exposed at L4 to S2 levels. After removing the ligamentous section between L4 and L5, a trapezoidal silicone block (1.00 mm long×1.3 to 1.2 mm wide×1.0 mm high) was inserted into the epidural space below the L5 and L6 spinal plates without damaging the dural sac. At this time, a Sham group was a group that was subjected to only posterior […] on the animal without inserting a silicone block.
To be used as a peripheral nerve injury animal model, a sciatic nerve injury (SNI) model was prepared (FIG. 1C). Specifically, 200 to 220 g of male adult Sprague-Dawley rats were anesthetized by intraperitoneal injection of chloral hydrate (500 mg/kg), and then three terminal branches (tibial, common peroneal, and sural nerves) of the right sciatic nerve were approached, and the tibia nerve and the peroneal nerve were tightly ligated with 4-0 silk, and neurectomy was performed at a distal 3 mm position of the ligation site. At this time, a Sham group was a group that exposed only the sciatic nerve without damage.
In order to confirm a neuropathic pain inhibitory effect of YJ102 (Chemical Formula 1), a compound of the present disclosure, in the three nerve injury animal models prepared in Example 1 above, rats having pain on week 3 (SNI model) or week 4 (SCI model and LSS model) after surgery were selected and administered orally (p.o.) at 10 mg/kg or 20 mg/kg of YJ102 dissolved in a solution of DMSO, methyl pyrrolidinone, and water (1:1.5:1), or intraperitoneally injected (i.p. injection) at 1, 2, or 5 mg/kg of YJ102. In a positive control group, gabapentin or pregabalin dissolved in saline was intraperitoneally injected at a concentration of 5 mg/kg, and in a Vehicle group, the same amount of a solution of DMSO, methyl pyrrolidinone, and water was administered. Thereafter, in order to measure mechanical allodynia, the rats were located at the bottom of a transparent plastic box (10 cm×10 cm) on top of a wire mesh (3 mm×3 mm) and subjected to an adaptation period for approximately 20 minutes. Von-Frey filaments were applied to the soles of both paws and used with stiff nylon von-Frey monofilament series ([…], Stoelting, WoodDale, IL, USA; equivalent in grams to 0.4, 0.6, 1.0, 2.0, 4.0, 6.0, 8.0 and 15.0) with logarithmic increases in tactile (mechanical) sensitivity. […]

sedation = experiment: Sedation as side effect of the drug; type: in vivo, Sprague-Dawley rats

SMILES | analgesic effect [1] | sedation (sedation; 50 mg/kg) | sedation (sedation; 20 mg/kg)
NCC1(CC(=O)O)CCCCC1 [gabapentin, reference compound] | significant analgesic effect | sedation as a side effect of the drug was observed | –
CC(C)C[C@H](CN)CC(=O)O [pregabalin, reference compound] | significant analgesic effect | – | sedation as a side effect of the drug was observed
